In ChEMBL document CHEMBL4196086, “Recent advances of imidazole-containing derivatives as anti-tubercular agents” (Eur J Med Chem, 2018):

Experiments:
Type in all cases: functional
[1] = tested on: Mycobacterium tuberculosis; test: Potency index, ratio of isoniazid MIC to compound MIC for Mycobacterium tuberculosis
[2] = tested on: Mycobacterium tuberculosis; test: Potency index, ratio of ofloxacin MIC to compound MIC for Mycobacterium tuberculosis
[3] = tested on: Mycobacterium tuberculosis; test: Potency index, ratio of ethionamide MIC to compound MIC for Mycobacterium tuberculosis
[4] = tested on: Mycobacterium tuberculosis; test: Antimycobacterial activity against Mycobacterium tuberculosis
[5] = tested on: Mycobacterium tuberculosis; test: Potency index, ratio of PA-824 MIC to compound MIC for Mycobacterium tuberculosis
[6] = tested on: Mycobacterium tuberculosis; test: Potency index, ratio of ethambutol MIC to compound MIC for Mycobacterium tuberculosis
[7] = tested on: Mycobacterium tuberculosis; test: Potency index, ratio of streptomycin MIC to compound MIC for Mycobacterium tuberculosis

Cc1ccn2c(C(=O)NCc3ccccc3Cl)c(C)nc2c1
>100: Ratio [1] | Ratio [2] | Ratio [3] | Ratio [5] | Ratio [6] | Ratio [7]
3 nM: MIC [4]
